Ends that are not written are not given here. His‑tag = His-Tag tail of six histidine residues (6 His), attached at the N- or C-terminal end
Columns and labels:
Format in all cases: cell-based, Escherichia coli
[1] = tested on: E. coli colistin-resistant strain; experiment: Anti-E. coli activity (AU/mL) of recombinant peptides; details: purified on Ni-NTA, adjusted to pH 5
From the text: Each of the orf coding for putative bacteriocin was cloned in expression vector suitable for E. coli competent cells. Each orf was cloned under the control of the inducible T7 promoter and with His-Tag (6 His) tail positioned on the N-terminal or C-terminal part. The cloning of each orf at the N- or C-terminal position of Histag tail, has led to 10 recombinant plasm ids. Each of these recombinant plasm ids was introduced in E. coli BL21 (DE3)(plysS) competent cells. The successfully transformed E. coli was regenerated in SOC medium for 1 h at 37° C. with shaking at 160 rpm, and then selected on Luria-Bertani (LB) agar medium supplemented with ampicillin (100 μg mL^−1) and chloramphenicol (30 μg mL^−1) (Sigma Aldrich). After overnight incubation at 37° C., the obtained colonies on LB agar medium with antibiotics were checked for the presence of the recombined plasmid containing the appropriate cloned orfs by PCR using specific primers.
Overnight culture of E. coli strain BL21(DE3)(pLysS), harboring each recombinant plasmid, was diluted to 1% (vol/vol) in LB medium containing ampicillin (100 μg mL^−1) and chloramphenicol (30 μg mL^−1) and then grown aerobically at 37° C. […]
Then the obtained solution was adjusted to pH 5 using acetic acid and then its activity (AU/mL) against E. coli colistin-resistant strain was evaluated, as described previously.

[2] = tested on: E. coli ATCC8739; experiment: Killing curves; details: BHI, inhibitory concentration (colistin 16 μg/mL), pH 4.5-5, 37° C.
Method: The killing curves were determined on three E. coli strains, because of for their resistance or sensitivity to colistin. These strains were E. coli 184 (mcr-1), E. coli E4A4 variant with resistance to colistin, and E. coli ATCC8739 colistin-sensitive reference strain (Table 5). These strains were inoculated in BHI (Brain Heart Infusion) medium containing the semi-purified fraction of E20 fraction at inhibitory concentration. An untreated E. coli ATCC8739 control treated with inhibitory concentration of colistin (16 μg/mL) was also tested. The pH of the medium was adjusted to 4.5-5 in the various samples, which were incubated at 37° C. for 8 h. At regular intervals of time, samples were taken to determine the number of colony forming units per mL (CFU/mL) under each tested condition.
As depicted in the FIG. 2, the number of CFU/mL of the strains treated with E20 fraction decreased rapidly with no visible growth (0 CFU/mL), after 1 h of incubation. […] A similar data was obtained after 1 h of incubation for E. coli ATCC8739 treated with colistin (16 μg/mL).

[3] = tested on: E. coli E4A4 variant; experiment: MIC determination; details: colistin unsensibilised
Method: (§1) The cell-free supernatant (CFS) was obtained by centrifugation (8 000 g, 10 min, 4° C.) of a culture of L. paracasei I-CNCM 5369 grown without shaking on MRS medium for 24 to 30 h at 37° C. Then 40 mL of the obtained CFS was loaded onto a reversed phase C18 (Agilent, USA) cartridge. Afterwards, a washing step was performed with 10% (v/v) acetonitrile followed-up by an elution with 40 mL of 20% (v/v) acetonitrile solution in order to eluate the active fraction. The active fraction was dried using SpeedVac and resuspended in 1:10 of the initial volume of ultrapure water. The resulting active solution was designed as fraction E20 (or E20% particularly in the figures) throughout the text. Fraction E20 was stored at 4° C. and therefore used for the different tests to characterize the anti-E. coli activity. Noteworthy, E20 fraction was tested against a panel of E. coli strains with different genotypes to examine their sensibility to the putative bacteriocin(s) contained in this fraction. This assessment was performed by the determination of the minimal inhibitory concentration (MIC) values, which were ranging from 250 to 2 000 μg/mL (Table 5).
(§2) E20 fraction prepared from L. paracasei I-CNCM 5369, was half-diluted and mixed with colistin at a concentration ranging from 1 to 128 μg/mL in BHI medium. The resulting formulations were tested against E. coli 184, carrying the mcr-1 gene, as well as on other E. coli strains (Table 6). After an overnight period of incubation at 37° C., the growth of E. coli strains was checked by spectrophotometry at OD600 nm, and new MIC values of colistin/E20 were determined. […] Indeed, the decreased from 8 to 2 μg/mL in the presence of E20 fraction. This synergetic interaction was as well observed for other E. coli strains, where the MIC values decreased twice for E. coli E4A4WT, 4 times folds for E. coli 289 and 8 times for E. coli E4A4 variant. […] The weight composition of the mixture of E20 fraction+colistin is indicated in brackets next to the MIC value. […]

[4] = tested on: E. coli ATCC8739; experiment: MIC determination; details: E. coli ATCC8739, reference strain
Method: as §1, §2

[5] = tested on: E. coli E4A4 WT; experiment: MIC determination; details: environmental strain
Method: as §1, §2

[6] = tested on: E. coli 289; details: E. coli 289, mcr-1−
Method: as §1
(§3) E20 fraction prepared from L. paracasei I-CNCM 5369, was half-diluted and mixed with colistin at a concentration ranging from 1 to 128 μg/mL in BHI medium. The resulting formulations were tested against E. coli 184, carrying the mcr-1 gene, as well as on other E. coli strains (Table 6). After an overnight period of incubation at 37° C., the growth of E. coli strains was checked by spectrophotometry at OD600 nm, and new MIC values of colistin/E20 were determined. […] Indeed, the decreased from 8 to 2 μg/mL in the presence of E20 fraction. This synergetic interaction was as well observed for other E. coli strains, where the MIC values decreased twice for E. coli E4A4WT, 4 times folds for E. coli 289 and 8 times for E. coli E4A4 variant. […] The weight composition of the mixture of E20 fraction+colistin is indicated in brackets next to the MIC value. The first value refers to the amount of colistin in μg/mL, whereas the second in brackets refers to the amount of E20 fraction in μg/mL).
(§4) The alginate nanoparticles (Alg NPs) were obtained by a top down process (ball milling) and used at a concentration of 500 μg/mL. The E20 fraction was mixed at a concentration of 60 μg/mL with this suspension, which corresponds to 12% of the used Alg NPs concentration. […] To gain insights on the effects of alginate nanoparticles, colistin was also loaded on Alg NPs and the resulting formulation (colistin-Alg NPs) was tested against same target E. coli strains.

[7] = tested on: E. coli 184; details: E. coli 184, mcr-1+
Method: as §1, §3, §4

[8] = tested on: E. coli SBS36; details: E. coli SBS36, truncated LPS
Method: as §1, §3, §4

[9] = tested on: E. coli TOP10; details: E. coli TOP10, LPS-
Method: as §1, §3, §4

[10] = tested on: panel of E. coli strains; experiment: Anti-E. coli activity / MIC over a panel of strains
[11] = tested on: E. coli CIP7628; experiment: MIC determination; details: E. coli CIP7628, reference strain
Method: as §1
The alginate nanoparticles (Alg NPs) were obtained by a top down process (ball milling) and used at a concentration of 500 μg/mL. […]

Row | Substance | anti E. coli activity [1] | incubation time to no visible growth (0 CFU/mL) [2] | MIC [3] | MIC [4] | MIC [5] | MIC [6] | MIC [7] | MIC [8] | MIC [9] | colistin MIC of E. coli 184 compared to reference strain E. coli ATCC8739 [10] | MIC [11]
1 | Orf10 HisTag C-ter: recombinant Orf010 peptide with C-terminal His-Tag expressed in E. coli BL21 (DE3) (pLysS) (MYTMTNLKDKELSQITGGFAFVIPVAAILGFLASDAWSHADEIAGGATSGWSLADKSHSL-{His‑tag}; not fully specified; listed as Lactobacillus paracasei) | 200 AU/mL | – | – | – | – | – | – | – | – | – | –
2 | colistin | – | 1 h | 16 µg/mL | 2 µg/mL | 2 µg/mL | 8 µg/mL | 8 µg/mL | 2 µg/mL | 1 µg/mL | four folds higher | 1 µg/mL
